Reference: PubChem BioAssay (NCI)
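How tested: cells in 96-well plates exposed to compound for 48 hours at five concentrations. GI50: concentration for 50% inhibition of growth. Definition used: TGI = concentration required for complete inhibition of growth.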

What was measured:
Assay in all cases: DTP human tumour cell line panel, 48 h
[1] = tested on: DU-145 prostate
[2] = tested on: UACC-257 melanoma
[3] = tested on: SNB-19 CNS
[4] = tested on: HCT-116 colon
[5] = tested on: SF-539 CNS
[6] = tested on: COLO 205 colon
[7] = tested on: MCF7 breast
[8] = tested on: NCI-H460 lung
[9] = tested on: HCT-15 colon
[10] = tested on: CCRF-CEM leukemia
[11] = tested on: LOX IMVI melanoma
[12] = tested on: KM12 colon
[13] = tested on: HCC-2998 colon
[14] = tested on: SK-MEL-2 melanoma
[15] = tested on: SR leukemia
[16] = tested on: OVCAR-4 ovarian
[17] = tested on: SK-MEL-28 melanoma
[18] = tested on: K-562 leukemia
[19] = tested on: MDA-MB-231 breast
[20] = tested on: U251 CNS
[21] = tested on: A498 renal
[22] = tested on: EKVX NSCLC
[23] = tested on: OVCAR-3 ovarian
[24] = tested on: MDA-MB-435
[25] = tested on: MALME-3M melanoma
[26] = tested on: HS 578T breast
[27] = tested on: BT-549 breast
[28] = tested on: UO-31 renal
[29] = tested on: NCI-H522 lung
[30] = tested on: NCI/ADR-RES ovarian
[31] = tested on: UACC-62 melanoma
[32] = tested on: NCI-H23 lung
[33] = tested on: IGROV1 ovarian
[34] = tested on: OVCAR-8 ovarian
[35] = tested on: HT29 colon
[36] = tested on: TK-10 renal
[37] = tested on: SF-295 CNS
[38] = tested on: RXF 393 renal
[39] = tested on: T-47D breast
[40] = tested on: NCI-H226 lung
[41] = tested on: OVCAR-5 ovarian
[42] = tested on: SN12C renal
[43] = tested on: ACHN renal
[44] = tested on: HL-60(TB) leukemia
[45] = tested on: A549 NSCLC
[46] = tested on: SF-268 CNS
[47] = tested on: SK-MEL-5 melanoma
[48] = tested on: SNB-75 CNS
[49] = tested on: CAKI-1 renal
[50] = tested on: HOP-62 NSCLC
[51] = tested on: SW-620 colon
[52] = tested on: 786-0 renal
[53] = tested on: M14 melanoma
[54] = tested on: HOP-92 NSCLC
[55] = tested on: SK-OV-3 ovarian
[56] = tested on: PC-3 prostate

O=C(c1cc(-c2cc3c(cc2C(=O)N2Cc4ccccc4C[C@H]2CN2CCOCC2)OCO3)n2c1CCCC2)N(c1ccccc1)c1ccc(O)cc1
GI50 [1]: 18 µM | TGI [1]: > 100 µM | GI50 [2]: 18.9 µM | TGI [2]: > 100 µM | GI50 [3]: 7.13 µM | TGI [3]: > 100 µM | GI50 [4]: 13.6 µM | TGI [4]: > 100 µM | GI50 [5]: 15.7 µM | TGI [5]: > 100 µM | GI50 [6]: 6.71 µM | TGI [6]: > 100 µM | GI50 [7]: 3.52 µM | TGI [7]: > 100 µM | GI50 [8]: 7.09 µM | TGI [8]: > 100 µM | GI50 [9]: 3.54 µM | TGI [9]: > 100 µM | GI50 [10]: 3.34 µM | TGI [10]: > 100 µM | GI50 [11]: 7.09 µM | TGI [11]: > 100 µM | GI50 [12]: 12.9 µM | TGI [12]: > 100 µM | GI50 [13]: 4.93 µM | TGI [13]: 61.3 µM | GI50 [14]: 10.2 µM | TGI [14]: 54.4 µM | GI50 [15]: 3.09 µM | TGI [15]: > 100 µM | GI50 [16]: 8.35 µM | TGI [16]: > 100 µM | GI50 [17]: 11.4 µM | TGI [17]: > 100 µM | GI50 [18]: 3.88 µM | TGI [18]: > 100 µM | GI50 [19]: 10.9 µM | TGI [19]: 53.3 µM | GI50 [20]: 6.99 µM | TGI [20]: > 100 µM | GI50 [21]: 2.71 µM | TGI [21]: 15.3 µM | GI50 [22]: 5.31 µM | TGI [22]: > 100 µM | GI50 [23]: 5.55 µM | TGI [23]: > 100 µM | GI50 [24]: 8.55 µM | TGI [24]: 98.9 µM | GI50 [25]: 15.6 µM | TGI [25]: > 100 µM | GI50 [26]: 6.05 µM | TGI [26]: > 100 µM | GI50 [27]: 36.4 µM | TGI [27]: > 100 µM | GI50 [28]: 4.28 µM | TGI [28]: > 100 µM | GI50 [29]: 22.9 µM | TGI [29]: > 100 µM | GI50 [30]: 6.5 µM | TGI [30]: > 100 µM | GI50 [31]: 8.62 µM | TGI [31]: > 100 µM | GI50 [32]: 34.8 µM | TGI [32]: > 100 µM | GI50 [33]: 5.97 µM | TGI [33]: > 100 µM | GI50 [34]: 10.6 µM | TGI [34]: > 100 µM | GI50 [35]: 5.14 µM | TGI [35]: > 100 µM | GI50 [36]: 27.8 µM | TGI [36]: > 100 µM | GI50 [37]: 5.14 µM | TGI [37]: > 100 µM | GI50 [38]: 2.77 µM | TGI [38]: 17.5 µM | GI50 [39]: 4.95 µM | TGI [39]: > 100 µM | GI50 [40]: 10.1 µM | TGI [40]: 56 µM | GI50 [41]: 5.87 µM | TGI [41]: > 100 µM | GI50 [42]: 8.6 µM | TGI [42]: > 100 µM | GI50 [43]: 9.36 µM | TGI [43]: > 100 µM | GI50 [44]: 2.62 µM | TGI [44]: 7.16 µM | GI50 [45]: 5.15 µM | TGI [45]: > 100 µM | GI50 [46]: 7.65 µM | TGI [46]: > 100 µM | GI50 [47]: 3.78 µM | TGI [47]: 18.6 µM | GI50 [48]: 3.61 µM | TGI [48]: > 100 µM | GI50 [49]: 3.56 µM | TGI [49]: > 100 µM | GI50 [50]: 64.4 µM | TGI [50]: > 100 µM | GI50 [51]: 17.3 µM | TGI [51]: > 100 µM | GI50 [52]: 45.9 µM | TGI [52]: > 100 µM | GI50 [53]: 18.1 µM | TGI [53]: > 100 µM | GI50 [54]: 2.72 µM | TGI [54]: 15 µM | GI50 [55]: 12.7 µM | TGI [55]: > 100 µM | GI50 [56]: 2.99 µM | TGI [56]: > 100 µM
